Where a name gives a salt, the structure may show the parent alone.
Molecular target: T1, recombinant human CXCR2 (Homo sapiens, UniProt P25025)
T1 construct: TEV protease site; Gal4-VP16 transcription factor
T1 sequence (P25025 1-360): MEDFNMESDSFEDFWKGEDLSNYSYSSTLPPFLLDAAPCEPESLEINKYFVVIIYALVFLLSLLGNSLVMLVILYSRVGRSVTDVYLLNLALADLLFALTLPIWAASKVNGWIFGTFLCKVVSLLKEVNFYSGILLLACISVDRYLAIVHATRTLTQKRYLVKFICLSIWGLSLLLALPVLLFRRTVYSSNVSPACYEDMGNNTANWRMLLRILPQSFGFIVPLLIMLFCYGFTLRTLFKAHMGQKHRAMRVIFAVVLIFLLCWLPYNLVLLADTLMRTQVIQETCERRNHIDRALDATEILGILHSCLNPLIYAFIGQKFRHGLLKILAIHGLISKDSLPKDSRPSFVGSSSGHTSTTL
Assay: CXCR2 Tango assay
Type: cell-based
Settings: mean pIC50 of multiple test results; stimulated with 80 nM hCXCL1; reporter gene blue/green emission ratio; read-out: pIC50 (CXCR2 Tango assay) (converted)
Summary of the method: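 A stable cell line carries human CXCR2 fused to a TEV site and Gal4-VP16, with protease-tagged arrestin. Cells (~10,000/well) were stimulated overnight at 37 °C with 80 nM hCXCL1 and a 10-point compound dilution. CCF4-AM beta-lactamase FRET (460/530 nm ratio) was read, normalized to hCXCL1 and DMSO, and mean pIC50 reported.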

Row | Structure (SMILES) | IC50 [nM]
1 | CC(C)S(=O)(=O)c1c(Cl)ccc(NC(=O)NC2C=CCC2)c1O (stereo not drawn) [Compound 18, 1-(4-chloro-2-hydroxy-3-(isopropylsulfonyl)phenyl)-3-(cyclopent-2-en-1-yl)urea] | ≤ 10
2 | CC1=CCCC1NC(=O)Nc1ccc(Cl)c(S(=O)(=O)C2CCc3nccn3C2)c1O (stereo not drawn) [Compound 108, 1-(4-chloro-2-hydroxy-3-((5,6,7,8-etrahydroimidazo [1,2-a]pyridin-6-yl)sulfonyl)phenyl)-3-(2-methylcyclopent-2-en-1-yl)urea, trifluoroacetic acid salt] | ≤ 10
3 | CC1=CCCC1NC(=O)Nc1ccc(Cl)c(S(=O)(=O)C(C)(C)C2CCOCC2)c1O (stereo not drawn) [Compound 103, 1-(4-chloro-2-hydroxy-3-((2-(tetrahydro-2H-pyran-4-yl)propan-2-yl)sulfonyl)phenyl)-3-(2-methylcyclopent-2-en-1-yl)urea] | ≤ 10
4 | O=C(Nc1ccc(Cl)c(S(=O)(=O)C2CCOCC2)c1O)NC1C=CCC1 (stereo not drawn) [Compound 176, 1-(4-chloro-2-hydroxy-3-((tetrahydro-2H-pyran-4-yl)sulfonyl)phenyl)-3-(cyclopent-2-en-1-yl)urea] | ≤ 10
5 | CC1=CCC[C@H]1NC(=O)Nc1ccc(Cl)c(S(=O)(=O)[C@@H]2CCCC[C@H]2O)c1O [Compound 46, 1-(4-chloro-2-hydroxy-3-((trans-2-hydroxycyclohexyl)sulfonyl)phenyl)-3-((R)-2-methylcyclopent-2-en-1-yl)urea] | ≤ 1
6 | CC1=CCC[C@H]1NC(=O)Nc1ccc(Cl)c(S(=O)(=O)N2CC[C@@H](F)C2)c1O [Compound 87, 1-(4-chloro-3-(((R)-3-fluoropyrrolidin-1-yl)sulfonyl)-2-hydroxyphenyl)-3-((R)-2-methylcyclopent-2-en-1-yl)urea, trifluoroacetic acid salt] | ≤ 10
7 | CC1=CCCC1NC(=O)Nc1ccc(Cl)c(S(=O)(=O)C2CCN3CCCC3C2)c1O (stereo not drawn) [Compound 109, 1-(4-chloro-2-hydroxy-3-((octahydroindolizin-7-yl)sulfonyl)phenyl)-3-(2-methylcyclopent-2-en-1-yl)urea, trifluoroacetic acid salt] | ≤ 10
8 | COC[C@H]1C[C@H](S(=O)(=O)c2c(Cl)ccc(NC(=O)NC3CCC=C3C)c2O)C1 (stereo partly drawn) [Compound 153, 1-(4-chloro-2-hydroxy-3-((trans-3-(methoxymethyl)cyclobutyl)sulfonyl)phenyl)-3-(2-methylcyclopent-2-en-1-yl)urea] | ≤ 10
9 | CC1=CCCC1NC(=O)Nc1ccc(Cl)c(S(=O)(=O)N2CC(F)(F)C2)c1O (stereo not drawn) [Compound 111, 1-(4-chloro-3-((3,3-difluoroazetidin-1-yl)sulfonyl)-2-hydroxyphenyl)-3-(2-methylcyclopent-2-en-1-yl)urea] | ≤ 10
10 | CC1=CCCC1NC(=O)Nc1ccc(Cl)c(S(=O)(=O)N2CC[C@@H](F)C2)c1O (stereo partly drawn) [Compound 113, 1-(4-chloro-3-(((R)-3-fluoropyrrolidin-1-yl)sulfonyl)-2-hydroxyphenyl)-3-(2-methylcyclopent-2-en-1-yl)urea] | ≤ 10
11 | COCC(C)(C)S(=O)(=O)c1c(Cl)ccc(NC(=O)NC2CCC=C2Cl)c1O (stereo not drawn) [Compound 157, 1-(4-chloro-2-hydroxy-3-((1-methoxy-2-methylpropan-2-yl)sulfonyl)phenyl)-3-(2-chlorocyclopent-2-en-1-yl)urea] | ≤ 10
12 | COCC(C)(C)S(=O)(=O)c1c(Cl)ccc(NC(=O)NC2CCC=C2C)c1O (stereo not drawn) [Compound 156, 1-(4-chloro-2-hydroxy-3-((1-methoxy-2-methylpropan-2-yl)sulfonyl)phenyl)-3-(2-methylcyclopent-2-en-1-yl)urea] | ≤ 10
13 | CC1=CCC[C@H]1NC(=O)Nc1ccc(Cl)c(S(=O)(=O)[C@H]2CC[C@H](O)C2)c1O (racemic) [Compound 45, (±)-trans-1-(4-chloro-2-hydroxy-3-((3-hydroxycyclopentyl)sulfonyl)phenyl)-3-((R)-2-methylcyclopent-2-en-1-yl)urea] | ≤ 1
14 | CC1=CCCC1NC(=O)Nc1ccc(Cl)c(S(=O)(=O)N(C)C)c1O (stereo not drawn) [Compound 137, 6-chloro-2-hydroxy-N,N-dimethyl-3-(3-(2-methylcyclopent-2-en-1-yl)ureido)benzene-sulfonamide] | ≤ 10
15 | COC1CCCCC1S(=O)(=O)c1c(Cl)ccc(NC(=O)NC2CCC=C2C)c1O (racemic) [Compound 150, (±)trans-1-(4-chloro-2-hydroxy-3-((2-methoxycyclohex-yl)sulfonyl)phenyl)-3-((R)-2-methylcyclopent-2-en-1-yl)urea] | ≤ 10
16 | O=C(Nc1ccc(Cl)c(S(=O)(=O)C2(F)CCOCC2)c1O)N[C@@H]1CCC=C1Cl [Compound 168, (R)-1-(4-chloro-3-((4-fluorotetrahydro-2H-pyran-4-yl)sulfonyl)-2-hydroxyphenyl)-3-(2-chlorocyclopent-2-en-1-yl)urea] | ≤ 1
17 | CO[C@@H]1COCC[C@@H]1S(=O)(=O)c1c(Cl)ccc(NC(=O)N[C@@H]2CCC=C2C)c1O [Compound 145, 1-(4-chloro-2-hydroxy-3-(((3R,4S)-3-methoxytetrahydro-2H-pyran-4-yl)sulfonyl)phenyl)-3-((R)-2-methylcyclopent-2-en-1-yl)urea] | ≤ 10
18 | CC(C)(CF)S(=O)(=O)c1c(Cl)ccc(NC(=O)NC2CCC=C2Cl)c1O (stereo not drawn) [Compound 10, 1-(4-chloro-3-((1-fluoro-2-methylpropan-2-yl)sulfonyl)-2-hydroxyphenyl)-3-(2-chlorocyclopent-2-en-1-yl)urea] | ≤ 10
19 | O=C(Nc1ccc(Cl)c(S(=O)(=O)C2CCOCC2)c1O)NC1CCC=C1Cl (stereo not drawn) [Compound 180, 1-(4-chloro-2-hydroxy-3-((tetrahydro-2H-pyran-4-yl)sulfonyl)phenyl)-3-(2-chlorocyclopent-2-en-1-yl)urea] | ≤ 10
20 | CC1=CCC[C@H]1NC(=O)Nc1ccc(Cl)c(S(=O)(=O)C(C)CO)c1O (stereo partly drawn) [Compound 34, 1-(4-chloro-2-hydroxy-3-((1-hydroxypropan-2-yl)sulfonyl)phenyl)-3-((R)-2-methylcyclopent-2-en-1-yl)urea] | ≤ 10
21 | COCCN1CCN(S(=O)(=O)c2c(Cl)ccc(NC(=O)NC3CCC=C3C)c2O)CC1 (stereo not drawn) [Compound 161, 1-(4-chloro-2-hydroxy-3-((4-(2-methoxyethyl)piperazin-1-yl)sulfonyl)phenyl)-3-(2-methylcyclopent-2-en-1-yl)urea] | ≤ 10
22 | CCN(CC)S(=O)(=O)c1c(Cl)ccc(NC(=O)NC2CCC=C2C)c1O (stereo not drawn) [Compound 121, 6-chloro-N,N-diethyl-2-hydroxy-3-(3-(2-methylcyclopent-2-en-1-yl)ureido)benzene-sulfonamide] | ≤ 10
23 | [2H]C([2H])([2H])C1(S(=O)(=O)c2c(Cl)ccc(NC(=O)N[C@@H]3CCC=C3Cl)c2O)CCOC1 (stereo partly drawn) [Compound 183, 1-(4-chloro-2-hydroxy-3-((3-(d3-methyl)tetrahydro-furan-3-yl)sulfonyl)phenyl)-3-((R)-2-chlorocyclopent-2-en-1-yl)urea] | ≤ 10
24 | CC1=CCCC1NC(=O)Nc1ccc(Cl)c(S(=O)(=O)[C@H]2C[C@H](CN(C)C)C2)c1O (stereo partly drawn) [Compound 131, 1-(4-chloro-3-(((1r,3r)-3-((dimethylamino)methyl)cyclobutyl)sulfonyl)-2-hydroxyphenyl)-3-(2-methylcyclopent-2-en-1-yl)urea, trifluoroacetic acid salt] | ≤ 10

From patent US10106515B2, “1-(cyclopent-2-en-1-yl)-3-(2-hydroxy-3-(arylsulfonyl)phenyl)urea derivatives as CXCR2 inhibitors” (GLAXOSMITHKLINE INTELLECTUAL PROPERTY DEVELOPMENT LIMITED, priority 2014, dated 2018)
